# Calls of active or inactive are those of the source.
# Key:
# [1] = viability inhibitors of stage V gametocytes – luminescence, dose response (AID 1117278); type: functional, cell-based;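 also: gametocytes exposed to compound for 24 hours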
# [2] = viability loss in human Jurkat cells – cell-based, luminescence, cytotoxicity control for P. falciparum gametocyte viability project, dose response (AID 1117277); type: functional;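 also: potency reflects loss of cellular ATP meaning fewer viable cells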
# [3] = target: T1, Sphingosine 1-phosphate receptor 2 (Homo sapiens, UniProt O95136); test: Dose Response Cell Based Assay for Antagonists of the S1P2 Receptor. [Related pubchem assays: 856, 736 ]; type: functional
# [4] = target: T2, SUMO-activating enzyme (Homo sapiens, UniProt Q9UBT2); test: blockers of UBC9-mediated SUMO conjugation – biochemical, AlphaScreen, SUMOylation inhibitor project, confirmation (AID 2018); type: functional
# [5] = target: T2, SUMO-activating enzyme; test: blockers of SAE1/SAE2–UBC9 SUMO transfer – biochemical, HTRF, uHTS, primary screen (AID 2006); type: protein-complex assay
# [6] = target: E3 ubiquitin-protein ligase UHRF1 (Homo sapiens, UniProt Q96T88); test: Counterscreen for inhibitors of 5-meCpG-binding domain protein 2 (MBD2): TRFRET-based biochemical high throughput dose response assay to identify inhibitors of binding of ubiquitin-like with PHD and ring finger domains 1 (UHRF1) to methylated oligonucleotide.
# [7] = target: T3, Aminopeptidase N (Plasmodium falciparum FcB1/Columbia, UniProt O96935); test: malaria alanyl aminopeptidase activity blockers – biochemical, fluorogenic H-Leu-NHMec substrate, 1536-well (AID 1445); design: species or system Plasmodium falciparum 3D7, 3D7
# T3 sequence (O96935 whole entry): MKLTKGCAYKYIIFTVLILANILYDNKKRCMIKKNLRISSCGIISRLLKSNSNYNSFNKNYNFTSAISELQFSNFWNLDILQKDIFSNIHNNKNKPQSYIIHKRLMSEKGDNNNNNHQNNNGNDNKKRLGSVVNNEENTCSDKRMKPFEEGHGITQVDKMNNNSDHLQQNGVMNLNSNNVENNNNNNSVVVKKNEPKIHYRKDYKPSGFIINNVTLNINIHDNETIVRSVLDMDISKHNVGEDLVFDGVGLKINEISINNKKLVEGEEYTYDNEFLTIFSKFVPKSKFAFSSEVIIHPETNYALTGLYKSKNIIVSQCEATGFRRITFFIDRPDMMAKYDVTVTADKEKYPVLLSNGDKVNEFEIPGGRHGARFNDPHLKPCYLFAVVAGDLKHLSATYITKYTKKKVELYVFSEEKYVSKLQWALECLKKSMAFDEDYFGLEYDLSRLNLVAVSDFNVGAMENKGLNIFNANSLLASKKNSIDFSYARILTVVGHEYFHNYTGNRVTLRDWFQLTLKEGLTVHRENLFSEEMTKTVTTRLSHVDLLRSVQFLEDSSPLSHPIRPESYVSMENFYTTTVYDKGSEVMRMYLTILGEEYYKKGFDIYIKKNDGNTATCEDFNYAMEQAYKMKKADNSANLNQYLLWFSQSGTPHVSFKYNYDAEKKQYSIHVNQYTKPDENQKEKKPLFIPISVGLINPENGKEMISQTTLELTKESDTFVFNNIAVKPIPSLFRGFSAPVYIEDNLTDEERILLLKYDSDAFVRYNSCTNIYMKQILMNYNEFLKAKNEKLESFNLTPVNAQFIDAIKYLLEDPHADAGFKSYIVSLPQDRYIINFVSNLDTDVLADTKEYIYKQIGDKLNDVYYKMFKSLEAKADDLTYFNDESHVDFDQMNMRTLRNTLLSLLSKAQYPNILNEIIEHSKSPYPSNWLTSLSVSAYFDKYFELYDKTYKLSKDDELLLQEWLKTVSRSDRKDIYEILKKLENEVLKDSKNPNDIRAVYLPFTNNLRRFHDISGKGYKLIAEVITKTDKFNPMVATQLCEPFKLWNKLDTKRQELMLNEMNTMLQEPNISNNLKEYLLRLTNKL
# [8] = RAM pathway signaling blockade in S. cerevisiae – dose response (AID 1307); type: functional
# [9] = Luminescence Cell-Based Dose Response HTS to Identify Activators of Luciferase Translation or Activity in H4 […] Cells. [Related pubchem assays: 1829 (Project Summary), 1814 (Primary HTS)]; type: functional
# [10] = target: NADPH oxidase 1 (Homo sapiens, UniProt Q9Y5S8); test: Late-stage luminescence-based cell-based dose response assay to identify inhibitors of NADPH oxidase 1 (NOX1): Synthesized analogs.; type: functional
# [11] = system: H4; test: Luminescence Cell-Based Dose Response HTS to Identify Activators of 5'UTR Stem-Loop Driven Prion Protein mRNA Translation in H4 Neuroglioblastoma Cells. [Related pubchem assays: 1829 (Project Summary), 1814 (Primary HTS)]; type: functional; details: Homo sapiens
# [12] = Luminescence Cell-Based Dose Confirmation HTS to Identify Activators of 5'UTR Stem-Loop Driven Alpha-Synuclein mRNA Translation in H4 Neuroglioblastoma Cells. [Related pubchem assays: 1829 (Project Summary), 1814 (Primary HTS)]; type: functional
# [13] = target: Diphosphomevalonate decarboxylase (Streptococcus pneumoniae serotype 2 (strain D39 / NCTC 7466), UniProt Q9FD53); test: diphosphomevalonate decarboxylase inhibitor confirmation – biochemical, cuvette format, coupled NADH fluorescence (AID 1028); type: functional
# [14] = target: T4, DNA repair and recombination protein RAD54-like (Homo sapiens, UniProt Q92698); test: RAD54 Holliday junction migration blockers – biochemical, fluorescence, cherry-picked samples, dose series, confirmation (AID 651657); type: functional
# T4 sequence (Q92698 whole entry): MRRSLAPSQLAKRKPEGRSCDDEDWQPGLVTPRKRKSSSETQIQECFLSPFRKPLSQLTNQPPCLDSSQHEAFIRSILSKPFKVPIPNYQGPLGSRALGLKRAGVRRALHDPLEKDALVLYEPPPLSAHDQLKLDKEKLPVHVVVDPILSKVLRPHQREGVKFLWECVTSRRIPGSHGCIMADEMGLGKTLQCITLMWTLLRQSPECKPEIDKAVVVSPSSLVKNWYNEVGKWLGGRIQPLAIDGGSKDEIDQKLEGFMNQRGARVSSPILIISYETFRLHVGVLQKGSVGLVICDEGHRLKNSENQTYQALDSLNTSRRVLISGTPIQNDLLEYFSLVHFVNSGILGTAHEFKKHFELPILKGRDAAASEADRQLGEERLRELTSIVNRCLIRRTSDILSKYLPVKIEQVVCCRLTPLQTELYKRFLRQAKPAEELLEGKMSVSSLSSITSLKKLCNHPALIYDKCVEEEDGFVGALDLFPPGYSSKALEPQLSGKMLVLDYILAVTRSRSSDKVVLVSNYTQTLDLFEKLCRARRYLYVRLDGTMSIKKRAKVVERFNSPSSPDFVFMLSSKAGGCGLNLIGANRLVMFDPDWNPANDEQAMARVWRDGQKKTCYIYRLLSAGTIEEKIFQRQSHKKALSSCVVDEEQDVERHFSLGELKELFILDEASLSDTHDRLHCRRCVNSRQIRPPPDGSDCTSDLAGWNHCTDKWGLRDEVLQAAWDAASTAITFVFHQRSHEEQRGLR
# [15] = Trypanosoma cruzi growth suppression in host cells – NIH3T3 host cells, beta-gal luminescence, confirmation (AID 2044); type: functional, cell-based;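 also: intracellular parasites grown in NIH/3T3 mouse fibroblasts as host cells; luminescent beta-galactosidase reporter signal from transgenic T. cruzi replicating inside host cells; inhibitors lower the luminescence signal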
# [16] = Luminescent dose response cell-based high throughput screening assay for inhibitors of the Janus kinase 2 mutant JAK2V617F. [Related pubchem assays: 1446 (Primary screen.), 1521 (Confirmation assay.), 1486 (Counter screen.)]; type: functional
# [17] = target: RNA-editing ligase 1, mitochondrial (Trypanosoma brucei brucei, UniProt P86926); test: inhibition of trypanosome RNA editing ligase – biochemical, fluorescence, Trypanosoma brucei, dose response (AID 1117295); type: functional
# [18] = target: Glutathione-S-transferase (Schistosoma japonicum, UniProt Q26513); test: GST-antibody interaction or FRET quenching – biochemical, TR-FRET, artefact control for Vif-APOBEC3G degradation inhibitor project, dose response (AID 1117362); type: functional
# [19] = target: T1, Sphingosine 1-phosphate receptor 2; test: Dose Response Cell Based Assay for Agonists of the S1P2 Receptor. [Related pubchem assays: 729, 736, 843 ]; type: functional
# [20] = target: 5-hydroxytryptamine receptor 1A (Homo sapiens, UniProt P08908); type: functional
# [21] = growth inhibition of PfATP4-mutant resistant parasites – NITD609-resistant line, SYBR Green, dry powder, dose response (AID 1159571); type: functional, cell-based;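 also: parasites synchronized at ring stage by sorbitol before testing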
# [22] = P. falciparum Dd2 growth inhibitors, dose response, SYBR Green, cherry-picked samples (AID 1159567); type: functional, cell-based
# [23] = growth inhibition of yeast DHODH-expressing 3D7 parasites – SYBR Green, dry powder samples, dose response (AID 1159570); type: functional, cell-based;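 also: parasite growth measured after 72 hours of compound exposure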
# [24] = Dd2 malaria parasite growth inhibition potency – SYBR Green, dry powder samples, dose response (AID 1159566); type: functional, cell-based;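 also: potency for growth inhibition with lower SYBR green DNA signal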
# [25] = toxicity to human HepG2 hepatoma cells – cell-based, plate reader, dry powder samples, cytotoxicity control, dose response (AID 1159569); type: functional;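 also: inhibitor potency with signal falling toward the positive control level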
# [26] = BioA aminotransferase inhibition, coupled fluorescent readout – biochemical, coupled fluorescence displacement, 20-point, dry powder, dose response (AID 743357); type: functional
# [27] = RKO cell viability reduction, dose response, CellTiter-Glo luminescence (AID 1117322); type: functional
# [28] = cytotoxicity toward Colo320 cells – cell-based, CellTiter-Glo luminescence, IC50, dose response (AID 1117334); type: functional; details: COLO 320
# [29] = CellTiter-Glo luminescence survival assay, SW480 colon tumor line, concentration-response curve, half-maximal inhibitory concentration (AID 1117338); type: functional
# [30] = Potency on glucagon-like peptide 1 release, dose-response in NCI-H716 cell line, half maximal inhibitory concentration (AID 1117344); type: functional, cell-based
# [31] = HCT116 cell viability decrease, GSK3B pretreatment – CellTiter-Glo, IC50, dose response (AID 1117339); type: functional; details: HCT-116
# [32] = glucagon-like peptide-1 release potency in STC-1, concentration-response, half-maximal inhibitory concentration in the STC-1 line (AID 1117345); type: functional, cell-based
# [33] = rise of 4N DNA cells, HeLa – IC50, dose response (AID 1117351); type: functional, cell-based
# [34] = Reduced DLD-1 viability, concentration-response, CellTiter-Glo luminescence (AID 1117352); type: functional
# [35] = cytotoxicity toward HCT116 cells – cell-based, CellTiter-Glo luminescence, IC50, dose response (AID 1117332); type: functional; details: HCT-116
# [36] = rise of 2N DNA cells, HeLa – IC50, dose response (AID 1117349); type: functional, cell-based
# [37] = SNU-C1 cell viability reduction, dose response, CellTiter-Glo luminescence (AID 1117323); type: functional, cell-based
# [38] = cytotoxicity toward HT-29 cells – cell-based, CellTiter-Glo luminescence, IC50, dose response (AID 1117330); type: functional
# [39] = viability loss of HPDE-C7K cells – cell-based, fluorescence, HTS, primary screen (AID 431); type: functional; details: Homo sapiens
# [40] = HPDE-C7 pancreatic duct cell viability loss – fluorescence, HTS (AID 430); type: functional, cell-based; details: Homo sapiens
# [41] = IC50 of insulin release inhibition, rat insulinoma INS-1E line, 5 mM glucose, cell-based (AID 1117331); type: functional
# T1 sequence (O95136 whole entry): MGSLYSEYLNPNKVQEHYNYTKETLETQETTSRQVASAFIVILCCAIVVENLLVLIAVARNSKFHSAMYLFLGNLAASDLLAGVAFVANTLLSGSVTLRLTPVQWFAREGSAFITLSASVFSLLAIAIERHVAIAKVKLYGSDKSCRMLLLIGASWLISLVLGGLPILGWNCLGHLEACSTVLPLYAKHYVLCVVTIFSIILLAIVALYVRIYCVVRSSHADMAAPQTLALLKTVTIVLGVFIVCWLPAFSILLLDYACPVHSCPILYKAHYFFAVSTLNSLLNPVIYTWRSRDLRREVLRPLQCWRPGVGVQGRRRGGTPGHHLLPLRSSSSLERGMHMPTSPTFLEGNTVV
# T2 sequence (Q9UBE0 whole entry): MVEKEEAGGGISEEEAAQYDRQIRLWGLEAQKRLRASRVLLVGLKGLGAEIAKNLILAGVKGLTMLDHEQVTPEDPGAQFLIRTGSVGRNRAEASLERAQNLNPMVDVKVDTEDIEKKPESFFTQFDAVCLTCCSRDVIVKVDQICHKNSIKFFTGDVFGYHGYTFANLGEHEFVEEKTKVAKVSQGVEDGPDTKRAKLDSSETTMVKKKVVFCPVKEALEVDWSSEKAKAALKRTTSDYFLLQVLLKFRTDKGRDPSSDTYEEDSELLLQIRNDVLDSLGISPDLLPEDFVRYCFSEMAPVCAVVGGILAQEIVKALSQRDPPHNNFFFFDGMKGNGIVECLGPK
# T2 sequence (Q9UBT2 whole entry): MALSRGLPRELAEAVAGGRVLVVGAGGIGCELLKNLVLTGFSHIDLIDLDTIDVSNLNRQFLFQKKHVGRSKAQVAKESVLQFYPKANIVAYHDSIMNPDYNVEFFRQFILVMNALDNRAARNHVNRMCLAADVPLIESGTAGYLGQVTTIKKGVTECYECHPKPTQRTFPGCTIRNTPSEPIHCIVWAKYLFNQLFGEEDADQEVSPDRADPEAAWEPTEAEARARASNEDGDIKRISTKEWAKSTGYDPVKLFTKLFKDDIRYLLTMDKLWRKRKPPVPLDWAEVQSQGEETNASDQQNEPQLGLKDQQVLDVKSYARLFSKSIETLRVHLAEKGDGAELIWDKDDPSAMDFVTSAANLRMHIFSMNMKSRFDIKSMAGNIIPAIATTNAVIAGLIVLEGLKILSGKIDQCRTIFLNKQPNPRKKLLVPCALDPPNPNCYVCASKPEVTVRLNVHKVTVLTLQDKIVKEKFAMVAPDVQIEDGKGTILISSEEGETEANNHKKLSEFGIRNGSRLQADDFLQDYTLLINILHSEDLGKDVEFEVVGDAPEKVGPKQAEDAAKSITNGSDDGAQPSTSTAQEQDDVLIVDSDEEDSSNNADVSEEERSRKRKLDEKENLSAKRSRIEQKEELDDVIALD
# Sequence of RNA-editing ligase 1, mitochondrial (P86926 whole entry): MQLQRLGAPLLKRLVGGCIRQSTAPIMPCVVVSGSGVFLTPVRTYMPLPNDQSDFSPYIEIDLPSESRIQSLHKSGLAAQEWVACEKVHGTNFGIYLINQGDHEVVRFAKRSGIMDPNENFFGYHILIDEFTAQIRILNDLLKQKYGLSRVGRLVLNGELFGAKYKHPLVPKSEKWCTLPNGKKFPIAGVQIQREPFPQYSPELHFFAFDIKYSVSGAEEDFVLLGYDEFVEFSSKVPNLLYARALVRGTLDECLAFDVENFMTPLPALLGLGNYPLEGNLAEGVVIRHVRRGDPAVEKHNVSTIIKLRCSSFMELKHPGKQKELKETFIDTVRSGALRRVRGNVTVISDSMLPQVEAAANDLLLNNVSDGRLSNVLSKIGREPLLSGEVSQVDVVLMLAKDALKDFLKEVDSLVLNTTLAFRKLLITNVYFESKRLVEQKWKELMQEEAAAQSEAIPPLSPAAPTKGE
# Sequence of 5-hydroxytryptamine receptor 1A (P08908 whole entry): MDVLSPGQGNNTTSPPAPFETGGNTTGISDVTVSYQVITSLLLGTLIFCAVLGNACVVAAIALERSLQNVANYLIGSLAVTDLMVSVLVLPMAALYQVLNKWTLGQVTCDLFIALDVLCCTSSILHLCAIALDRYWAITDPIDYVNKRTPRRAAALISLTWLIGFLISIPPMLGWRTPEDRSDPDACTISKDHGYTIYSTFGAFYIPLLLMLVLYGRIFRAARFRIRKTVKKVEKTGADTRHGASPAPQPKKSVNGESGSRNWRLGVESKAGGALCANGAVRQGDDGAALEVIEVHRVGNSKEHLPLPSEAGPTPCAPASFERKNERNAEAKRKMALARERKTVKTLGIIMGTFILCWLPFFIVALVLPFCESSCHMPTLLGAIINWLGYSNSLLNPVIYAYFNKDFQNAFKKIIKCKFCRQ
# Sequence of E3 ubiquitin-protein ligase UHRF1 (Q96T88 whole entry, the tested form may be a part): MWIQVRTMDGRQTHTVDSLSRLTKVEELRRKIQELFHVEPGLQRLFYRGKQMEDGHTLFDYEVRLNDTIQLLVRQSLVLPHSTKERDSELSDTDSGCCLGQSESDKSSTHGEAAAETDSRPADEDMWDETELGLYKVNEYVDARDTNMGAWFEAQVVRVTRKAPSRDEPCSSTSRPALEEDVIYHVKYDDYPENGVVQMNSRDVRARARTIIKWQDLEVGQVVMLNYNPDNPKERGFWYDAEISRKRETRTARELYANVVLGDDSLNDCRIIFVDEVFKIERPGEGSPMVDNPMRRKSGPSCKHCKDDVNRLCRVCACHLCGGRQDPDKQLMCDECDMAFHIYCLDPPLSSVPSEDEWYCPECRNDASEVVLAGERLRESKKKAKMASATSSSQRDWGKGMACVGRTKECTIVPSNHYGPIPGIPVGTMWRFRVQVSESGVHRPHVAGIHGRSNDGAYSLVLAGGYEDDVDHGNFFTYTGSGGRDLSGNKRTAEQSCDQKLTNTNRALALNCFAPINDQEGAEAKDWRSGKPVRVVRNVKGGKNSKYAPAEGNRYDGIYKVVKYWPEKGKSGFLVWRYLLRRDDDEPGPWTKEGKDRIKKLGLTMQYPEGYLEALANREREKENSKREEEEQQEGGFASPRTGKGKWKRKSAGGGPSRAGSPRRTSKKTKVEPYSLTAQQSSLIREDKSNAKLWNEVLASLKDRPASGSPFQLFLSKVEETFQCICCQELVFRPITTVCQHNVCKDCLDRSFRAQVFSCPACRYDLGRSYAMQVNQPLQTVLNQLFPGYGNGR
# Sequence of Diphosphomevalonate decarboxylase (Q9FD53 whole entry): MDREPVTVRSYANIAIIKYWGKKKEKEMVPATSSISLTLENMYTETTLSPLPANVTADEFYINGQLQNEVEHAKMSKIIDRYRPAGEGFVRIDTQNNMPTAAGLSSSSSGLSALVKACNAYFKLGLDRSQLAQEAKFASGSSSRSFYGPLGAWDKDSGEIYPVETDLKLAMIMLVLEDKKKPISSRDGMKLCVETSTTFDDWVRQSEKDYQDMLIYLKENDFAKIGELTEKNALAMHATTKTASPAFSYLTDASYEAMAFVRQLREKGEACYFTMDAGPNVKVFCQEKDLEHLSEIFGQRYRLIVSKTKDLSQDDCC
# Sequence of Glutathione-S-transferase (Q26513 whole entry): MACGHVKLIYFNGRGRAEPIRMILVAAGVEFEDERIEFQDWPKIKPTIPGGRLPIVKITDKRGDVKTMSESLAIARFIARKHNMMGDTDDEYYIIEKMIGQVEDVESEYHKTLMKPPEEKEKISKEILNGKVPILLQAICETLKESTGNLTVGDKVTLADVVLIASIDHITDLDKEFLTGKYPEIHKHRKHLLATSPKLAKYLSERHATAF
# Sequence of NADPH oxidase 1 (Q9Y5S8 whole entry): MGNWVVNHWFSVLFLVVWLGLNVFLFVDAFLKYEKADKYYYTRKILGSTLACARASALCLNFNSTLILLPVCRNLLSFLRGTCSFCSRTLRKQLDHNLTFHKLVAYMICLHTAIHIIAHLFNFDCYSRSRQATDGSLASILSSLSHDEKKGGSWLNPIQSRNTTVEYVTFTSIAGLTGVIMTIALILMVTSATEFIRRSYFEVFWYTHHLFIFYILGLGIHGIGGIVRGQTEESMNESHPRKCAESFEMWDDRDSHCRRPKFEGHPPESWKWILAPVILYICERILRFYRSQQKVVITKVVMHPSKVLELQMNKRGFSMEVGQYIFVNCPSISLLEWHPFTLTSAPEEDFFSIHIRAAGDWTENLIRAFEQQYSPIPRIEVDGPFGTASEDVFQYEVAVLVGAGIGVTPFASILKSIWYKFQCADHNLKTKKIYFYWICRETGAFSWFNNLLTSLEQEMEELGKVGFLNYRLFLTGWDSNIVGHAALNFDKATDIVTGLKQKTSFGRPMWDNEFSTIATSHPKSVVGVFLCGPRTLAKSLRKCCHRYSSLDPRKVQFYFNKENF
smiles,measurement,setting,value
Cc1ccccc1-c1nc(CN2CCCC(C(=O)NCCCN3CCOCC3)C2)c(C)o1 (stereo unspecified),IC50,[1],> 109 µM (inactive)
same,IC50,[2],> 83.3 µM (inactive)
O=C(O)c1sc2cc(C(F)(F)F)cnc2c1-c1ccccn1,IC50,[3],> 30 µM (not active)
CCCN(C(=O)c1cc2c(s1)CCC2)c1c(N)n(Cc2ccccc2)c(=O)[nH]c1=O,IC50,[4],16.7 µM (active)
same,IC50,[5],37.7 µM (active)
same,IC50,[6],> 43.8 µM (inactive)
same,IC50,[7],77.2 µM (active)
CN1/C(=C\C=C2/C(=O)Oc3ccccc3C2=O)C(C)(C)c2ccccc21,IC50,[8],178 µM (active)
c1ccc2c(c1)Nc1cc3ccccc3cc1S2,EC50,[9],6.01 µM (active)
same,IC50,[10],7.58 µM (active)
same,EC50,[11],5.77 µM (active)
same,EC50,[12],98.5 µM (active)
O=C(c1ccc(-n2sc3ccccc3c2=O)cc1)N1CCOCC1,IC50,[13],13.1 µM (active)
CC1CCN(CCCNC(=O)c2cc3c(Cl)nc4ccccc4c3s2)CC1,AC50,[14],11.7 µM (active)
same,EC50,[15],2.1 µM (active)
same,IC50,[16],0.96 µM (active)
CC(C)c1c(Cl)c(O)c(-c2ccccc2)c(=O)n1-c1ccc(F)cc1,IC50,[17],61.6 µM (inactive)
CC1CCCCN1Cc1ccc(N(C)C)cc1 (stereo unspecified),IC50,[18],> 100 µM (active)
O=c1c(-c2nc3ccccc3s2)cccn1Cc1ccc(Cl)c(Cl)c1,EC50,[19],2.18 µM (active)
CN1CCN(/C(=N\O)c2nonc2N)CC1,EC50,[20],> 50 µM (not active)
COc1cccc(C#Cc2cnc3c(c2)C(=O)N([C@H](C)CO)C[C@H](C)[C@@H](CN(C)C(=O)C2CCCCC2)O3)c1,AC50,[21],0.803 µM (active)
same,AC50,[22],0.722 µM (active)
same,AC50,[23],1.58 µM (active)
same,AC50,[24],0.643 µM (active)
same,AC50,[25],29.4 µM (active)
COc1ccc(C(=O)N2CCN(c3ccc(C(C)=O)cc3)CC2)cc1OC,AC50,[26],11.7 µM (active)
COC(=O)Nc1nc2cc(Sc3ccccc3)ccc2[nH]1 [FENBENDAZOLE],IC50,[27],0.001 µM (active)
same,IC50,[28],> 20 µM (inactive)
same,IC50,[29],> 20 µM (inactive)
same,IC50,[30],> 40 µM (inactive)
same,IC50,[31],0.003 µM (active)
same,IC50,[32],> 20 µM (inactive)
same,IC50,[33],0.195 µM (active)
same,IC50,[34],0.0673 µM (active)
same,IC50,[35],0.001 µM (active)
same,IC50,[36],0.204 µM (active)
same,IC50,[37],> 20 µM (inactive)
same,IC50,[38],> 20 µM (inactive)
CN1C[C@H](CNC(=O)OCc2ccccc2)C[C@@H]2c3cccc4c3c(cn4C)C[C@H]21 [METERGOLINE],EC50,[39],> 20 µM (not active)
same,EC50,[40],> 20 µM (not active)
same,IC50,[41],> 33.3 µM (inactive)

# Source: ChEMBL document CHEMBL1201862, “PubChem BioAssay data set” (2004)
